The text below walks through data of publication PMC8031368 (ACS chemical biology, 2020).

A word on the Ki: it is a dissociation constant, usually derived from enzyme kinetics or from competition with a known ligand. The low end stands for a stronger hold on the target, the high end for a looser hold on the target.

For one experiment, the target named is T1, PR (Homo sapiens, UniProt P06401).
T1 sequence (P06401 1-933): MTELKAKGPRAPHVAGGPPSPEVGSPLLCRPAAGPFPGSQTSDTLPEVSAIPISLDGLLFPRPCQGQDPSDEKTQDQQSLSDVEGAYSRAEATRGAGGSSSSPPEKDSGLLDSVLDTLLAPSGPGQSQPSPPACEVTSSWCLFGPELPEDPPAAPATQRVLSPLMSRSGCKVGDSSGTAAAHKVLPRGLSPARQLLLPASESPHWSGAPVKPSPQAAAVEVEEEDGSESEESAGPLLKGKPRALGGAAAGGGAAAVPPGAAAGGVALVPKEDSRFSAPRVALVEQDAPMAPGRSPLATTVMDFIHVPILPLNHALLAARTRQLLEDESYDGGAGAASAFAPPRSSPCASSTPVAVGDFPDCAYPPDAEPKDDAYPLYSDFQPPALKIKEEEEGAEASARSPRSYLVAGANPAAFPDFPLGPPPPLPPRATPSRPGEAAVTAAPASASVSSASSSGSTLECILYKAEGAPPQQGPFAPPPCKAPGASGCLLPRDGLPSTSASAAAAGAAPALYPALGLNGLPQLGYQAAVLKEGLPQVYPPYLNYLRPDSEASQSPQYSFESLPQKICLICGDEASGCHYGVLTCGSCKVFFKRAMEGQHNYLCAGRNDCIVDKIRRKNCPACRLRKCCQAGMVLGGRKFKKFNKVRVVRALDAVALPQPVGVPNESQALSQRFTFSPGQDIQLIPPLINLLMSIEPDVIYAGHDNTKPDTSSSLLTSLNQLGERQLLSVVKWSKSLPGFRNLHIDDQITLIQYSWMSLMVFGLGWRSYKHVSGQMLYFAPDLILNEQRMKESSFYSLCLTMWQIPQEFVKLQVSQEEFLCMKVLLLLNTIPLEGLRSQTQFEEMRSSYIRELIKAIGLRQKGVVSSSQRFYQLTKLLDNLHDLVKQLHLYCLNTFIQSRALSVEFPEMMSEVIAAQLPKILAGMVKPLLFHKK
Description: 3H-progesterone displacement assay on MCF7 cells. The class given is binding.

Another experiment has as its target T2, ER (Homo sapiens, UniProt P03372).
T2 sequence (P03372 1-595): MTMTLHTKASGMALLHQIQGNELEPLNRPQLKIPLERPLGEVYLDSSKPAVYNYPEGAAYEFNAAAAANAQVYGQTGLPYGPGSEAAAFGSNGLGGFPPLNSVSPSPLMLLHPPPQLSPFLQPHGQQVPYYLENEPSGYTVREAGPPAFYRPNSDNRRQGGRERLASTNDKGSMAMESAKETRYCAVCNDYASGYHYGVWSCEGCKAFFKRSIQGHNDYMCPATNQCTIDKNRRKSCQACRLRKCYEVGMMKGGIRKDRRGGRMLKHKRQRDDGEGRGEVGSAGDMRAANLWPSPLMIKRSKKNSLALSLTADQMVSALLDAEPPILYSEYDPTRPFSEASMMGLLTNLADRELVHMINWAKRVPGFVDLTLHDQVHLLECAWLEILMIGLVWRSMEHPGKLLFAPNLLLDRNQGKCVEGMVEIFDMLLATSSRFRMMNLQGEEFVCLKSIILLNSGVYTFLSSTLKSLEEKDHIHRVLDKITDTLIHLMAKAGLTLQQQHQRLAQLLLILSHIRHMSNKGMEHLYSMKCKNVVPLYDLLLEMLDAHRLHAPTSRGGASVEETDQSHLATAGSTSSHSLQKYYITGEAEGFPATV
Kind of experiment: 3H-estradiol displacement assay on MCF7 cells. The class given is binding.

In experiment [1] the test system is GR target genes (GILZ, FKBP5, Per1) in DU145 cells. Description: Real time PCR of GR target genes in DU145 cells. The class given is cell-based, human.
The target of the next experiment is T3, AR (Homo sapiens, UniProt P10275).
T3 sequence (P10275 1-920): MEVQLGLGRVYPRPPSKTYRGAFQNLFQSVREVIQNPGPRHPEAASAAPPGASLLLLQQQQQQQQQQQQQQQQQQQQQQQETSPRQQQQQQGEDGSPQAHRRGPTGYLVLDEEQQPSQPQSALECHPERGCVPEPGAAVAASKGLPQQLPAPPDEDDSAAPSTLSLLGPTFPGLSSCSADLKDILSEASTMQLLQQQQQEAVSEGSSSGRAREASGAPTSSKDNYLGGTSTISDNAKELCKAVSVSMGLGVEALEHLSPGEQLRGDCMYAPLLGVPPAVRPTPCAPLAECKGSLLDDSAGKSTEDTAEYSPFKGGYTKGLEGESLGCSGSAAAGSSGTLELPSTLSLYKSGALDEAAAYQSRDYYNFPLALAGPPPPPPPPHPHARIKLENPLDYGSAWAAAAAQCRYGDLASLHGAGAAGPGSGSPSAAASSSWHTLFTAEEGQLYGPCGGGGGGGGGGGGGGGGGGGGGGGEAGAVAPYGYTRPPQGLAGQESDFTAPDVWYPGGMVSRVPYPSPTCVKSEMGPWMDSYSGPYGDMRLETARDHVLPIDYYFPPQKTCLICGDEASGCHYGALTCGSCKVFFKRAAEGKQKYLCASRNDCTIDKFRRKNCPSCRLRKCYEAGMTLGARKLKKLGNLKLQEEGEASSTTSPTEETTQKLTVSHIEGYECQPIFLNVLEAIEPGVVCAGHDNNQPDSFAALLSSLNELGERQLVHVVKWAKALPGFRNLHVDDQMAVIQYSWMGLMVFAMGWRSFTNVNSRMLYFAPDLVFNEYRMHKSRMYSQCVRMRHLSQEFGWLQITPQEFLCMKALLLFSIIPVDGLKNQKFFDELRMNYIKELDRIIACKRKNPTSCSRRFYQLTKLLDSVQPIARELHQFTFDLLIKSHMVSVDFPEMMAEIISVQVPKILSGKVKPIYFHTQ
Kind of experiment: 3H-dihydrotestosterone displacement assay on LNCaP-AR cells. The class given is binding.

The next experiment deals with T4, GR (Homo sapiens, UniProt P04150).
T4 sequence (P04150 1-777): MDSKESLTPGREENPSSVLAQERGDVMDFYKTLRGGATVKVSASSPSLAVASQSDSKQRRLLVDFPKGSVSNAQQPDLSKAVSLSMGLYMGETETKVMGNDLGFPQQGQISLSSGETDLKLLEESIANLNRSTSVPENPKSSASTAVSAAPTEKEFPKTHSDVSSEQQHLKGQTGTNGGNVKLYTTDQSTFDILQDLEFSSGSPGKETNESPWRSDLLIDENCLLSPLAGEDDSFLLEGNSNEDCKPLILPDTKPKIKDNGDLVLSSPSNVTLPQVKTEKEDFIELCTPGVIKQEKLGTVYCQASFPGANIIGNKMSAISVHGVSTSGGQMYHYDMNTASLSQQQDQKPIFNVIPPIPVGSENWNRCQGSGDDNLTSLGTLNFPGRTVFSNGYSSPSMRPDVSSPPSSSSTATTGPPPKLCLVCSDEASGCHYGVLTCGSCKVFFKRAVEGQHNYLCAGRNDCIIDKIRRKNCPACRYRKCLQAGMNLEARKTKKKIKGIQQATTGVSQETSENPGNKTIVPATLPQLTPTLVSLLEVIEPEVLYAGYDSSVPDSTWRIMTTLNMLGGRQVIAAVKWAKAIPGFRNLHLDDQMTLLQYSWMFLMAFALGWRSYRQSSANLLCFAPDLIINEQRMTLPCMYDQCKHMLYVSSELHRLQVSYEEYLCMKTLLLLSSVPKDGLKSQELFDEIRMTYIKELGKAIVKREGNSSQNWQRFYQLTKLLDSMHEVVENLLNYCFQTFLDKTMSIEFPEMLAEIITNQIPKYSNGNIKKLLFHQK
Kind of experiment: 3H-dexamethasone displacement assay on DU145 cells. The class given is binding.

Take `COc1cccc2c1-c1ccc3c(c1C(Cc1ccc(F)cc1)O2)C(C)=CC(C)(C)N3` (centres unmarked) [YJH08, 5-(4-fluorobenzyl)-10-methoxy-2,2,4-trimethyl-2,5-dihydro-1H-chromeno[3,4-f]quinoline]: the inhibition constant Ki is 555 nM at PR; 19000 nM on ER; 220 nM at AR; 0.401 nM on GR (Ki GR, 3H-dexamethasone displacement, DU145 cells, one site Ki fit); ~0.4 nM at GR (Ki for GR). The “levels of GR target genes GILZ, FKBP5” value in experiment [1] (DU145 cells, 10 μM, 6 h exposure, real time PCR) is listed as “elevated”. In addition, the “induction of Per1” value in experiment [1] (DU145 cells, YJH08 10 μM, 6 h exposure) is on record as “induced by dexamethasone but not YJH08”. Besides, the “GR functional activity (overall assessment)” value in experiment [1] (from target gene induction in DU145 cells) is on record as “mild GR agonist”.
